From article PMC6154598, “Alkamides from Anacyclus pyrethrum L. and Their in Vitro Antiprotozoal Activity” (Molecules : A Journal of Synthetic Chemistry and Natural …, 2017)
≈ marks a conversion by molar mass, not a printed value. Where two headings read alike, the source gives them in different places.

What was measured:
P. falciparum (NF54 IEF) [1] = test system: P. falciparum (NF54 IEF); parameters: method as in PMID 24853616; conditions: previously reported data; cited from earlier work
[2] = test system: T. b. rhodesiense (STIB 900 strain, bloodstream trypomastigotes); assay: In vitro antiprotozoal activity against T. b. rhodesiense; type: cell-based, Trypanosoma brucei rhodesiense; conditions: for SI Tbr: ratio of cytotoxic (L6) over antiprotozoal IC50 (Tbr)
Experimental: (§1) Tests for antiprotozoal activities were carried out using established standard protocols at the Swiss Tropical and Public Health Institute (Swiss TPH, Basel, Switzerland). The assays and the IC50 determinations were performed essentially as described previously. The compounds used as positive controls in the various bioassays (see Table 1) were of commercial origin, with the exception of melarsoprol, which was a gift from the WHO. Their purity (generally >95%) was specified by the manufacturers. The purity of test compounds was assessed by UHPLC/MS analyses and found to be >90% in case of compounds 1–6 and >80% in case of 7. Compounds 8 + 9 represented a mixture in a ratio of approximately 1:4 (Figure S10).

[3] = test system: T. cruzi (Tulahuen C4 strain; intracellular amastigotes); assay: In vitro antiprotozoal activity against T. cruzi; type: cell-based, Trypanosoma cruzi
Experimental: as §1

[4] = test system: L. donovani (MHOM-ET-67/L82 strain, axenic amastigotes); assay: In vitro antiprotozoal activity against L. donovani; type: cell-based, Leishmania donovani; conditions: for SI Ld: ratio of cytotoxic (L6) over antiprotozoal IC50 (Ld)
Experimental: as §1

P. falciparum (NF54 IEF) [5] = assay: In vitro antiprotozoal activity against P. falciparum; type: cell-based, Plasmodium falciparum; conditions: for SI Pf: ratio of cytotoxic (L6) over antiprotozoal IC50 (Pf)
Experimental: as §1

[6] = Cytotoxicity against L6 rat skeletal myoblasts; type: cell-based
Experimental: as §1

[7] = test system: L6 rat skeletal myoblast cell line; assay: Cytotoxicity against L6 rat skeletal myoblasts; type: cell-based
Experimental: as §1

[8] = Trypanosoma brucei, STIB 900 strain, bloodstream trypomastigotes, mean of two determinations ± deviation, read-out: IC50 Tbr
[9] = Trypanosoma brucei, STIB 900 strain, bloodstream trypomastigotes, value in μM of pure compound, read-out: IC50 Tbr (in brackets)
[10] = Trypanosoma cruzi, Tulahuen C4 strain, intracellular amastigotes, mean of two determinations ± deviation, read-out: IC50 Tc
[11] = Trypanosoma cruzi, Tulahuen C4 strain, intracellular amastigotes, value in μM of pure compound, read-out: IC50 Tc (in brackets)
[12] = Leishmania donovani, MHOM-ET-67/L82 strain, axenic amastigotes, mean of two determinations ± deviation, read-out: IC50 Ld
[13] = Leishmania donovani, MHOM-ET-67/L82 strain, axenic amastigotes, value in μM of pure compound, read-out: IC50 Ld (in brackets)
[14] = Plasmodium falciparum, NF54, NF54 IEF, mean of two determinations ± deviation, read-out: IC50 Pf
[15] = Plasmodium falciparum, NF54, NF54 IEF, value in μM of pure compound, read-out: IC50 Pf (in brackets)
[16] = rat, IC50 Cytotox (in brackets)
[17] = Plasmodium falciparum, NF54, read-out: IC50 Pf
[18] = Plasmodium falciparum, NF54, read-out: IC50 Pf (in brackets)
[19] = L6 rat skeletal myoblast cell line, mean of two determinations ± deviation, read-out: IC50 Cytotox
[20] = L6 rat skeletal myoblast cell line, value in μM of pure compound, read-out: IC50 Cytotox (in brackets)
[21] = NF54 IEF, mean of two determinations ± deviation

For `CCCCC/C=C/C=C/C(=O)NCC(C)C` [Compound 2, deca-2E,4E-dienoic acid isobutylamide], the “IC50 Pf” value (P. falciparum (NF54 IEF) [1]) is listed as 3.3 µg/mL (≈ 14.8 µM).
In the case of `C=CCCC/C=C/C=C/C(=O)NCC(C)C` [Compound 3, deca-2E,4E,9-trienoic acid isobutylamide], the IC50 [2, 8] is reported as 2.91 ± 0.21 µg/mL, the IC50 [2, 9] is reported as 13.2 µM and the “SI Tbr” value [2] is reported as 5.7. For the same molecule, the IC50 [3, 10] was 39.9 µg/mL, the IC50 [3, 11] was 181 µM and the IC50 [4, 12] was 4.77 ± 1.02 µg/mL. For the same molecule, the IC50 [4, 13] was 21.6 µM, the “SI Ld” value [4] was 3.5 and the IC50 (P. falciparum (NF54 IEF) [5]; [14]) was 7.13 ± 0.63 µg/mL. For the same molecule, the IC50 (P. falciparum (NF54 IEF) [5]; [15]) was 32.2 µM, the “SI Pf” value (P. falciparum (NF54 IEF) [5]) was 2.3 and the IC50 ([6]; rat, IC50 Cytotox) was 16.7 ± 0.1 µg/mL. The IC50 [6, 16] was 75.3 µM.
In the case of `CCCCC/C=C/C=C/C(=O)NCCc1ccccc1` [Compound 4, deca-2E,4E-dienoic acid 2-phenylethylamide], the IC50 [2, 8] is reported as 4.03 µg/mL, the IC50 [2, 9] is reported as 14.9 µM and the “SI Tbr” value [2] is reported as 2.0. It also gave an IC50 ([3]; Trypanosoma cruzi, TULAHUEN, read-out: IC50 Tc) of 5.02 ± 0.05 µg/mL, an IC50 [3, 11] of 18.5 µM and an IC50 ([4]; Leishmania donovani, read-out: IC50 Ld) of 2.97 ± 0.54 µg/mL. For the same molecule, the IC50 ([4]; Leishmania donovani, read-out: IC50 Ld (in brackets)) was 11 µM, the “SI Ld” value [4] was 2.7 and the IC50 (P. falciparum (NF54 IEF) [5]; [17]) was greater than 5 µg/mL. It also gave an IC50 (P. falciparum (NF54 IEF) [5]; [18]) greater than 18 µM, an IC50 [6, 19] of 7.88 µg/mL and an IC50 [6, 20] of 29.1 µM.
For `C/C=C\C#CC#CCC/C=C/C=C/C(=O)NCC(C)C` [Compound 6, tetradeca-2E,4E,12Z-trien-8,10-diynoic acid isobutylamide], the IC50 [2, 8] was 6.37 ± 0.94 µg/mL, the IC50 [2, 9] was 23.7 µM and the “SI Tbr” value [2] was 3.1. The IC50 [3, 10] was 38.8 ± 2.1 µg/mL, the IC50 [3, 11] was 144 µM and the IC50 [4, 12] was 5.04 ± 1.17 µg/mL. The IC50 [4, 13] was 18.7 µM, the “SI Ld” value [4] was 3.9 and the IC50 (P. falciparum (NF54 IEF) [5]; [14]) was 7.19 ± 0.49 µg/mL. For the same molecule, the IC50 (P. falciparum (NF54 IEF) [5]; [15]) was 26.7 µM, the “SI Pf” value (P. falciparum (NF54 IEF) [5]) was 2.7 and the IC50 ([6]; rat, IC50 Cytotox) was 19.4 ± 1.7 µg/mL. It also gave an IC50 [6, 16] of 72.2 µM.
For `CCCCCCC/C=C/C=C/C(=O)NCCc1ccc(O)cc1` [Compound 7, Dodeca-2E,4E-dienoic acid 4-hydroxy-2-phenylethylamide], the IC50 [2, 8] was 2.26 ± 0.18 µg/mL, the IC50 [2, 9] was 7.17 µM and the “SI Tbr” value [2] was 0.1. For the same molecule, the IC50 ([3]; Trypanosoma cruzi, TULAHUEN, read-out: IC50 Tc (in brackets)) was 5.97 µM, the IC50 [3, 10] was 1.88 µg/mL and the IC50 [4, 12] was 4.19 ± 1.64 µg/mL. The IC50 [4, 13] was 13.3 µM, the “SI Ld” value [4] was less than 0.1 and the “IC50 Pf” value (P. falciparum (NF54 IEF) [5]; [21]) was 3.18 ± 0.20 µg/mL (≈ 10.1 µM). The IC50 (P. falciparum (NF54 IEF) [5]; [14]) was 3.2 µg/mL, the IC50 (P. falciparum (NF54 IEF) [5]; [15]) was 10.1 µM and the “SI Pf” value (P. falciparum (NF54 IEF) [5]) was less than 0.1. For the same molecule, the IC50 ([6]; rat, IC50 Cytotox) was 0.2 µg/mL, the IC50 [6, 16] was 0.69 µM and the “IC50 Cytotox” value ([7]; rat) was 0.19 ± 0.05 µg/mL (≈ 0.602 µM).
Molecule `CCN(CC)CCCC(C)Nc1ccnc2cc(Cl)ccc12` (stereo not drawn) [chloroquine, reference compound] has an IC50 (P. falciparum (NF54 IEF) [5]; [17]) of 0.08 ± 0.003 µg/mL and an IC50 (P. falciparum (NF54 IEF) [5]; [18]) of 0.25 µM.
With `Nc1nc(N)nc(Nc2ccc([As]3SCC(CO)S3)cc2)n1` (stereo not drawn) [melarsoprol, reference compound] the IC50 ([2]; Trypanosoma brucei, read-out: IC50 Tbr) was 0.003 ± 0.001 µg/mL and the IC50 ([2]; Trypanosoma brucei, read-out: IC50 Tbr (in brackets)) was 0.008 µM.
For `CCCCCCCCCCCCCCCCOP(=O)([O-])OCC[N+](C)(C)C` [miltefosine, reference compound], the IC50 [4, 12] was 0.127 ± 0.052 µg/mL and the IC50 [4, 13] was 0.312 µM.
Molecule `COc1cc([C@@H]2c3cc4c(cc3[C@H](O)[C@H]3COC(=O)[C@H]23)OCO4)cc(OC)c1OC` [podophyllotoxin, reference compound] has an IC50 [6, 19] of 0.008 ± 0.001 µg/mL and an IC50 [6, 20] of 0.019 µM.
In the case of “undeca-2E,4E-dien-8,10-diynoic acid isopentylamide [Compound 5]”, the “IC50 Tbr” value ([2]; STIB 900 strain, bloodstream trypomastigotes, mean of two determinations ± deviation) is reported as 4.59 ± 0.39 µg/mL, the IC50 ([2]; STIB 900 strain, bloodstream trypomastigotes, value in μM of pure compound, read-out: IC50 Tbr (in brackets)) is reported as 18.9 µM and the “SI Tbr” value [2] is reported as 6.2. For the same molecule, the “IC50 Tc” value ([3]; Tulahuen C4 strain, intracellular amastigotes, mean of two determinations ± deviation) was 16.3 ± 0.3 µg/mL, the IC50 ([3]; Tulahuen C4 strain, intracellular amastigotes, value in μM of pure compound, read-out: IC50 Tc (in brackets)) was 66.9 µM and the “IC50 Ld” value ([4]; MHOM-ET-67/L82 strain, axenic amastigotes, mean of two determinations ± deviation) was 4.04 ± 0.71 µg/mL. For the same molecule, the IC50 ([4]; MHOM-ET-67/L82 strain, axenic amastigotes, value in μM of pure compound, read-out: IC50 Ld (in brackets)) was 16.6 µM, the “SI Ld” value [4] was 7.0 and the “IC50 Pf” value (P. falciparum (NF54 IEF) [5]; [21]) was 10.3 ± 1.4 µg/mL. The IC50 (P. falciparum (NF54 IEF) [5]; NF54 IEF, value in μM of pure compound, read-out: IC50 Pf (in brackets)) was 42.5 µM, the “SI Pf” value (P. falciparum (NF54 IEF) [5]) was 2.7 and the IC50 [7] was 116 µM. The “IC50 Cytotox” value [7] was 28.2 ± 6.9 µg/mL.
